Laboratory results: the supplement of paper PMC11451515

Columns and labels:
Experiment in all cases: AUC of viability dose-response curve (% viability x log10 dose units); higher = less sensitive
Settings in all cases: 48 h
NOMO1 = test system: NOMO1
How it was run: (§1)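 Library compounds in DMSO were applied for 48 h at 37°C at 11 threefold doses (47 μM to 0.79 nM) to medium-adapted leukemia cells in 1536-well plates holding 500 or 1000 cells/well. Luminescence from CellTiter-Glo One was normalised plate by plate against DMSO and cell-free wells. Area under the curve came from trapezoidal integration of a log-logistic fit, after scaling curves that rose above full viability and discarding those that failed quality control. The fit had four parameters and used log10 doses.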

P12-Ichikawa = test system: P12-Ichikawa
How it was run: as §1

SEM cells = test system: SEM cells
How it was run: as §1

[1] = RPMI 5 mM glucose + 10% dialyzed FBS

SMILES	AUC of viability dose-response curve (NOMO1; HPLM + 10% dialyzed FBS)	AUC of viability dose-response curve (NOMO1; RPMI 5 mM glucose + 10% FBS)	AUC of viability dose-response curve (NOMO1; [1])	AUC of viability dose-response curve (P12-Ichikawa; HPLM + 10% dialyzed FBS)	AUC of viability dose-response curve (P12-Ichikawa; RPMI 5 mM glucose + 10% FBS)	AUC of viability dose-response curve (P12-Ichikawa; [1])	AUC of viability dose-response curve (SEM cells; HPLM + 10% dialyzed FBS)	AUC of viability dose-response curve (SEM cells; RPMI 5 mM glucose + 10% FBS)	AUC of viability dose-response curve (SEM cells; [1])
Cc1onc(-c2ccccc2)c1C(=O)N[C@@H]1C(=O)N2[C@@H]1SC(C)(C)[C@@H]2C(=O)[O-].[Na+]	379	407	401	440	414	394			
CC(O)C1C2C(C)\C(=C(/N2C1=O)C(O)=O)SC3CNC(C3)C(=O)N(C)C (centres undefined)	416	404	396	432	392	416	395	407	438
CC/1=C(\O)C(=O)\C=C2/C1=C/C=C3\[C@@]2(C)CC[C@@]4(C)[C@@H]5C[C@@](C)(CC[C@]5(C)CC[C@]34C)C(O)=O	366	360	363	386	360	346	362	355	341
Cc1nc(Nc2n[nH]c3c2CN(C(=O)N[C@H](CN(C)C)c2ccccc2)C3(C)C)c2sccc2n1	262	277	266	317	258	266			
CN(C)C1=C(Br)C=C(C=C1)C\2NC3=C(\C4=C2C(=O)CC(C)(C)C4)C5=CC=CC=C5C=C3 (centres undefined)				466	447	459	471	465	470
C[C@](N)(Cc1ccc(O)c(O)c1)C(=O)O	391	387	405	427	416	398	395	417	432
COc1cc(CNC(=O)CCCC/C=C/C(C)C)ccc1O	380	368	399	287	322	305	343	310	329
COC(=O)\C1=C\CCN(C)C1	473	448	466	446	470	468	473	473	477
CC(C)(O)c1cc2nc(-c3cnc(N)nc3)nc(N3CCOCC3)c2s1	343	402	334	406	361	363			
NC(=O)OCC(COC(N)=O)c1ccccc1	434	465	456	465	460	465	455	448	471
C[C@@]1(C(=O)Nc2ccc(F)nc2)CCCN1c1nc(Nc2cc(C3CC3)[nH]n2)c2cccn2n1	369	417	392	374	380	393			
N=C1N[C@H]2[C@H](CS[C@H]2CCCCC(=O)O)N1	456	473	443	464	464	470			
CCN1CCN(C(=O)Cc2ccc(Nc3ncc(F)c(Nc4ccc(C(=O)Nc5ccccc5Cl)cc4)n3)cc2)CC1	420	430	420	405	418	413	402	383	386
NC(=O)c1ncn([C@@H]2O[C@H](CO)[C@@H](O)[C@H]2O)c1O	465	468	460	464	463	464	473	474	457
COc1cccc2c1[C@]13CCN(CC4CC4)[C@H](C2)[C@]1(OC)CCC(=O)C3	469	459	473	451	436	446	422	416	421
CN1CCN(C(=O)O[C@H]2c3nccnc3C(=O)N2c2ccc(Cl)cn2)CC1	451	467	464	468	461	470	453	450	445
CCOC(=O)\C1=C\[C@@H](OC(CC)CC)[C@H](NC(C)=O)[C@@H](N)C1	440	450	454	463	460	419	416	432	414
CC1(C)C(N(O)C(=O)Nc2ccc(Cl)cc2)N(c2ccc(Cl)cc2)C(=O)N1CC(=O)N/N=C/C=C/c1ccc([N+](=O)[O-])o1 (centres undefined)	447	447	468	465	461	453	453	386	382
COc1ccc2cc1Oc1ccc(cc1)C[C@H]1c3cc(c(OC)cc3CCN1C)Oc1c(OC)c(OC)cc3c1[C@H](C2)N(C)CC3	430	451	452	442	447	458	423	432	441
N#C/C(C(=O)c1ccc(Cl)cc1Cl)=C1/NC(=O)c2ccc(Cl)cc2N1	453	453	456	451	440	463	459	449	454
N#C[C@H](O[C@@H]1O[C@H](CO[C@@H]2O[C@H](CO)[C@@H](O)[C@H](O)[C@H]2O)[C@@H](O)[C@H](O)[C@H]1O)c1ccccc1	454	435	448	454	446	427	462	452	452
Cc1ncc([N+](=O)[O-])n1CC(C)O (centres undefined)	467	465	459	467	462	463			
OC[C@H]1O[C@@H]2[C@@H](OC\3=N\C(=N)\C=C/[N@@]23)[C@@H]1O	348	374	344	248	241	251	277	264	223
C1CCN2C[C@H]3C[C@H](\C=C/4CCCN[C@@H]34)[C@H]2C1	462	447	452	456	457	457	465	449	457

SMILES	AUC of viability dose-response curve (NOMO1; HPLM + 10% dialyzed FBS)	AUC of viability dose-response curve (NOMO1; RPMI 5 mM glucose + 10% FBS)	AUC of viability dose-response curve (NOMO1; [1])	AUC of viability dose-response curve (P12-Ichikawa; HPLM + 10% dialyzed FBS)	AUC of viability dose-response curve (P12-Ichikawa; RPMI 5 mM glucose + 10% FBS)	AUC of viability dose-response curve (P12-Ichikawa; [1])	AUC of viability dose-response curve (SEM cells; HPLM + 10% dialyzed FBS)	AUC of viability dose-response curve (SEM cells; RPMI 5 mM glucose + 10% FBS)	AUC of viability dose-response curve (SEM cells; [1])
CNC(=O)CN1CCC(Oc2cc3c(Nc4cccc(Cl)c4F)ncnc3cc2OC)CC1	320	302	325	364	356	374	457	469	469
c1ccc(-c2oc3ncnc(NC[C@@H]4CCCO4)c3c2-c2ccccc2)cc1	454	467	454	461	454	455	468	463	467
Cc1c(C)c2c(c(C)c1O)CCC(C)(COc1ccc(CC3SC(=O)NC3=O)cc1)O2 (centres undefined)	466	466	454	477	477	462	467	462	471
C[C@@H](O)[C@@H]1NC(=O)[C@H](CCCCN)NC(=O)[C@@H](Cc2c[nH]c3ccccc23)NC(=O)[C@H](Cc2ccccc2)NC(=O)[C@@H](NC(=O)[C@H](N)Cc2ccccc2)CSSC[C@@H](C(=O)N[C@H](CO)[C@@H](C)O)NC1=O				438	395	391	422	404	380
C=CCc1ccc(O)c(-c2ccc(O)c(CC=C)c2)c1	419	388	382	251	331	319	377	308	345
Cc1cccc(/C=N/Nc2cc(N3CCOCC3)nc(OCCc3ccccn3)n2)c1	382	352	322	399	373	343	415	396	358
COc1cc(C(=O)NS(=O)(=O)c2ccccc2C)ccc1Cc1cn(C)c2ccc(NC(=O)OC3CCCC3)cc12	371	378	384	411	380	383	323	338	319
CC[C@]1(O)C[C@@H]2CN(CCc3c([nH]c4ccccc34)[C@@](C(=O)OC)(c3cc4c(cc3OC)N(C)[C@H]3[C@@](O)(C(N)=O)[C@H](O)[C@]5(CC)C=CCN6CC[C@]43[C@@H]65)C2)C1	223	259	278	231	218	263	250	217	258
C[S+](=O)([O-])c1ccc(Oc2cc(F)cc(C#N)c2)c2c1[C@H](O)C(F)(F)C2	455	462	448	467	469	472	467	459	467
CC(NCCc1ccc(O)cc1)C(O)c1ccc(O)cc1 (centres undefined)	459	446	451	465	469	460	412	452	413
CC(C)OC1=CC=C2C(=C1)O\C=C(/C2=O)C3=CC=CC=C3	447	435	471	467	465	465	461	460	442
CC/1=C(/N2[C@H](SC1)[C@H](NC(=O)C(N)C3=CC=CC=C3)C2=O)C(O)=O (some centres undefined)	457	459	464	461	472	473	437	464	467
C[C@]12CC[C@H]3[C@@H](CCC/4=C/C(=O)CC[C@]34C)[C@@H]1CC[C@@H]2OC(=O)CCC5CCCC5	461	471	464	448	459	466	452	463	462
COC1=CC=C(C=C1O)C/2=C/C(=O)C3=C(O2)C=C(O[C@@H]4O[C@H](CO[C@@H]5O[C@@H](C)[C@H](O)[C@@H](O)[C@H]5O)[C@@H](O)[C@H](O)[C@H]4O)C=C3O	456	460	477	461	463	470	461	453	466
CO/N=C(\C(=O)N[C@@H]1C(=O)N2C(C(=O)OCOC(=O)C(C)(C)C)=C(/C=C\c3scnc3C)CS[C@H]12)c1csc(N)n1	453	448	398	463	449	451	419	412	453
O=c1[nH]c(=O)n(C2CCCO2)cc1F (centres undefined)	468	455	447	466	467	470	448	467	469
COC1=CC=C2/C3=N/CCN3\C(=N/C2=C1OC)NC(=O)C4=CC=CN=C4	427	462	402	457	427	439	452	419	422
COc1cccc2c1CCCC2CCCN1CCN(C2CCCCC2)CC1 (centres undefined)	462	457	450	469	459	460	427	428	454
OC(CN1CCN(c2cccc(Cl)c2)CC1)C(c1ccccc1)c1ccccc1 (centres undefined)	265	324	341	238	318	307	319	252	257
N#C/N=C(\NCCCCCCOc1ccc(Cl)cc1)Nc1ccncc1							48.4	34.6	38
CN(C)CCN1C(=O)c2cccc3cc(N)cc(c23)C1=O	424	427	435	437	418	431			
Cc1c[nH]c(-c2cnc(NCCNc3ccc(C#N)cn3)nc2-c2ccc(Cl)cc2Cl)n1	398	381	396	397	366	379			
Nc1nc(Cl)nc2c1ncn2[C@@H]1O[C@H](CO)[C@@H](O)[C@@H]1F				83.1	75.7	115	68	55.4	55.4
